In US20260053932A1, “COMPOUNDS AND METHODS FOR THE TARGETED DEGRADATION OF ANDROGEN RECEPTOR AND ASSOCIATED METHODS OF USE” (Arvinas Operations, Inc., priority 2020, published 2026):
Read-outs that look alike come from different tables or passages of the source.

Test system: androgen receptor (AR) in LNCaP and/or VCaP cells
Assay: Androgen Receptor ELISA assay (AR degradation)
Format: cell-based
How it was run: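 VCaP cells grown ≥3 days, then treated 5 h with compound in media containing 1 nM R1881 (10× stock). Cells lysed and AR quantified by sandwich ELISA (mouse AR detection Ab, HRP anti-mouse, TMB). DC50 and Dmax derived from AR degradation.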

[1] = LNCaP and/or VCaP cells, 5 hours incubation, media with R1881, read-out: DC50 Code* (degradation of AR ELISA)

| DC50 [1] [nM] | SMILES | DC50 (degradation of AR ELISA in LNCaP and/or VCaP cells, read-out: DC50 Code*) [nM] |
| --- | --- | --- |
| > 100 | COc1cc(O[C@H]2CC[C@@H](NC(=O)c3cnc(N4CCC(CN(C(C)C)[C@H]5C[C@H](Oc6ccc7c(c6)C(=O)N(C6CCC(=O)NC6=O)C7=O)C5)CC4)cn3)C2)ccc1C#N (stereo partly drawn) [Compound 6, N-((1R,3S)-3-(4-cyano-3-methoxyphenoxy)cyclopentyl)-5-(4-((((1r,3R)-3-((2-(2,6-dioxopiperidin-3-yl)-1,3-dioxoisoindolin-5-yl)oxy)cyclobutyl) (isopropyl)amino)methyl)piperidin-1-yl)pyrazine-2-carboxamide] |  |
| > 100 | COc1cc(O[C@H]2CC[C@H](NC(=O)c3cnc(N4CCC(CN(C(C)C)[C@H]5C[C@H](Oc6ccc7c(c6)C(=O)N(C6CCC(=O)NC6=O)C7=O)C5)CC4)cn3)C2)ccc1C#N (stereo partly drawn) [Compound 7, N-((1S,3S)-3-(4-cyano-3-methoxyphenoxy)cyclopentyl)-5-(4-((((1r,3S)-3-((2-(2,6-dioxopiperidin-3-yl)-1,3-dioxoisoindolin-5-yl)oxy)cyclobutyl) (isopropyl)amino)methyl)piperidin-1-yl)pyrazine-2-carboxamide] |  |
| > 100 | COc1cc(O[C@@H]2CC[C@@H](NC(=O)c3cnc(N4CCC(CN(C(C)C)[C@H]5C[C@H](Oc6ccc7c(c6)C(=O)N(C6CCC(=O)NC6=O)C7=O)C5)CC4)cn3)C2)ccc1C#N (stereo partly drawn) [Compound 10, N-((1R,3R)-3-(4-cyano-3-methoxyphenoxy)cyclopentyl)-5-(4-((((1r,3R)-3-((2-(2,6-dioxopiperidin-3-yl)-1,3-dioxoisoindolin-5-yl)oxy)cyclobutyl) (isopropyl)amino)methyl)piperidin-1-yl)pyrazine-2-carboxamide] |  |
| > 100 | COc1cc(O[C@@H]2CC[C@H](NC(=O)c3cnc(N4CCC(CN(C(C)C)[C@H]5C[C@H](Oc6ccc7c(c6)C(=O)N(C6CCC(=O)NC6=O)C7=O)C5)CC4)cn3)C2)ccc1C#N (stereo partly drawn) [Compound 11, N-((1S,3R)-3-(4-cyano-3-methoxyphenoxy)cyclopentyl)-5-(4-((((1r,3S)-3-((2-(2,6-dioxopiperidin-3-yl)-1,3-dioxoisoindolin-5-yl)oxy)cyclobutyl) (isopropyl)amino)methyl)piperidin-1-yl)pyrazine-2-carboxamide] |  |
| < 1 | N#Cc1ccc(O[C@H]2CC[C@H](NC(=O)c3cnc(N4CCC(CN(CC5COC5)[C@H]5C[C@H](Oc6ccc7c(c6)CN(C6CCC(=O)NC6=O)C7=O)C5)CC4)cn3)CC2)cc1Cl (some centres unmarked) [Compound 13, N-((1r,4r)-4-(3-chloro-4-cyanophenoxy)cyclohexyl)-5-(4-((((1r,3r)-3-((2-(2,6-dioxopiperidin-3-yl)-1-oxoisoindolin-5-yl)oxy)cyclobutyl) (oxetan-3-ylmethyl)amino)methyl)piperidin-1-yl)pyrazine-2-carboxamide] |  |
| < 1 | COc1cc(O[C@H]2C[C@H](N(CC3CCN(c4cnc(C(=O)N[C@H]5CC[C@H](Oc6ccc(C#N)c(Cl)c6)CC5)cn4)CC3)C(C)C)C2)cc2c1C(=O)N(C1CCC(=O)NC1=O)C2=O (some centres unmarked) [Compound 14, N-((1r,4r)-4-(3-chloro-4-cyanophenoxy)cyclohexyl)-5-(4-((((1r,3r)-3-((2-(2,6-dioxopiperidin-3-yl)-7-methoxy-1,3-dioxoisoindolin-5-yl)oxy)cyclobutyl) (isopropyl)amino)methyl)piperidin-1-yl)pyrazine-2-carboxamide] |  |
| < 1 | N#Cc1ccc(O[C@H]2CC[C@H](NC(=O)c3cnc(N4CCC(CN(C5COC5)[C@H]5C[C@H](Oc6ccc7c(c6)C(=O)N(C6CCC(=O)NC6=O)C7)C5)CC4)cn3)CC2)cc1Cl (some centres unmarked) [Compound 15, N-((1r,4r)-4-(3-chloro-4-cyanophenoxy)cyclohexyl)-5-(4-((((1r,3r)-3-((2-(2,6-dioxopiperidin-3-yl)-3-oxoisoindolin-5-yl)oxy)cyclobutyl) (oxetan-3-yl)amino)methyl)piperidin-1-yl)pyrazine-2-carboxamide] |  |
| < 1 | COCCN(CC1CCN(c2cnc(C(=O)N[C@H]3CC[C@H](Oc4ccc(C#N)c(Cl)c4)CC3)cn2)CC1)[C@H]1C[C@H](Oc2ccc3c(c2)CN(C2CCC(=O)NC2=O)C3=O)C1 (some centres unmarked) [Compound 16, N-((1r,4r)-4-(3-chloro-4-cyanophenoxy)cyclohexyl)-5-(4-((((1r,3r)-3-((2-(2,6-dioxopiperidin-3-yl)-1-oxoisoindolin-5-yl)oxy)cyclobutyl)(2-methoxyethyl)amino)methyl)piperidin-1-yl)pyrazine-2-carboxamide] |  |

More lines, now with the values behind:

| SMILES | DC50 [1] [nM] | DC50 (degradation of AR ELISA in LNCaP and/or VCaP cells, read-out: DC50 Code*) [nM] |
| --- | --- | --- |
| Cc1cc(O[C@H]2C(C)(C)[C@H](NC(=O)c3cnc(N4CCC(CN(C(C)C)[C@H]5C[C@H](Oc6ccc7c(c6)C(=O)N(C6CCC(=O)N(COP(=O)(O)OCOC(=O)OC(C)C)C6=O)C7=O)C5)CC4)cn3)C2(C)C)cc(C)c1C#N (mixture of isomers) [compound 247, rac-((((3-(5-((1r,3r)-3-(((1-(5-(((1r,3r)-3-(4-cyano-3,5-dimethylphenoxy)-2,2,4,4-tetramethylcyclobutyl)carbamoyl)pyrazin-2-yl)piperidin-4-yl)methyl)(isopropyl)amino)cyclobutoxy)-1,3-dioxoisoindolin-2-yl)-2,6-dioxopiperidin-1-yl)methoxy)(hydroxy)phosphoryl)oxy)methyl isopropyl carbonate] |  | > 100 |
| COc1cc(O[C@H]2C[C@H](N(CC3CCN(c4ncc(C(=O)NC5CC6(C5)CC(Oc5cc(C)c(C#N)c(C)c5)C6)cn4)CC3)C(C)C)C2)cc2c1C(=O)N(C1CCC(=O)NC1=O)C2=O (some centres unmarked) [Compound 1, N-(6-(4-cyano-3,5-dimethylphenoxy)spiro [3.3]heptan-2-yl)-2-(4-((((1r,3r)-3-((2-(2,6-dioxopiperidin-3-yl)-7-methoxy-1,3-dioxoisoindolin-5-yl)oxy)cyclobutyl) (isopropyl)amino)methyl)piperidin-1-yl)pyrimidine-5-carboxamide] | 1 to 10 |  |
| COc1cc(O[C@H]2C[C@H](N(CC3CCN(c4ncc(C(=O)NC5CC6CC(Oc7cc(C)c(C#N)c(C)c7)CC6C5)cn4)CC3)C(C)C)C2)cc2c1C(=O)N(C1CCC(=O)NC1=O)C2=O (some centres unmarked) [Compound 2, N-(5-(4-cyano-3,5-dimethylphenoxy)octahydropentalen-2-yl)-2-(4-((((1r,3r)-3-((2-(2,6-dioxopiperidin-3-yl)-7-methoxy-1,3-dioxoisoindolin-5-yl)oxy)cyclobutyl) (isopropyl)amino)methyl)piperidin-1-yl)pyrimidine-5-carboxamide] | > 100 |  |
| COc1cc(O[C@H]2C[C@H](N(CC3CCN(c4ncc(C(=O)NC5CC6CN(Cc7cc(C)c(C#N)c(C)c7)CC6C5)cn4)CC3)C(C)C)C2)cc2c1C(=O)N(C1CCC(=O)NC1=O)C2=O (some centres unmarked) [Compound 3, N-(2-(4-cyano-3,5-dimethylbenzyl)octahydrocyclopenta [c]pyrrol-5-yl)-2-(4-((((1r,3r)-3-((2-(2,6-dioxopiperidin-3-yl)-7-methoxy-1,3-dioxoisoindolin-5-yl)oxy)cyclobutyl) (isopropyl)amino)methyl)piperidin-1-yl)pyrimidine-5-carboxamide] | > 100 |  |
| COc1cc(O[C@H]2C[C@H](N(CC3CCN(c4ncc(C(=O)N[C@@H]5CC[C@H](Oc6cc(C)c(C#N)c(C)c6)C5)cn4)CC3)C(C)C)C2)cc2c1C(=O)N(C1CCC(=O)NC1=O)C2=O (stereo partly drawn) [Compound 4, N-((1R,3S)-3-(4-cyano-3,5-dimethylphenoxy)cyclopentyl)-2-(4-((((1r,3R)-3-((2-(2,6-dioxopiperidin-3-yl)-7-methoxy-1,3-dioxoisoindolin-5-yl)oxy)cyclobutyl) (isopropyl)amino)methyl)piperidin-1-yl)pyrimidine-5-carboxamide] | > 100 |  |
| COc1cc(O[C@H]2C[C@H](N(CC3CCN(c4ncc(C(=O)N[C@H]5CC[C@H](Oc6cc(C)c(C#N)c(C)c6)C5)cn4)CC3)C(C)C)C2)cc2c1C(=O)N(C1CCC(=O)NC1=O)C2=O (stereo partly drawn) [Compound 5, N-((1S,3S)-3-(4-cyano-3,5-dimethylphenoxy)cyclopentyl)-2-(4-((((1r,3S)-3-((2-(2,6-dioxopiperidin-3-yl)-7-methoxy-1,3-dioxoisoindolin-5-yl)oxy)cyclobutyl) (isopropyl)amino)methyl)piperidin-1-yl)pyrimidine-5-carboxamide] | > 100 |  |
| COc1cc(O[C@H]2C[C@H](N(CC3CCN(c4ncc(C(=O)N[C@@H]5CC[C@@H](Oc6cc(C)c(C#N)c(C)c6)C5)cn4)CC3)C(C)C)C2)cc2c1C(=O)N(C1CCC(=O)NC1=O)C2=O (stereo partly drawn) [Compound 8, N-((1R,3R)-3-(4-cyano-3,5-dimethylphenoxy)cyclopentyl)-2-(4-((((1r,3R)-3-((2-(2,6-dioxopiperidin-3-yl)-7-methoxy-1,3-dioxoisoindolin-5-yl)oxy)cyclobutyl) (isopropyl)amino)methyl)piperidin-1-yl)pyrimidine-5-carboxamide] | > 100 |  |
| COc1cc(O[C@H]2C[C@H](N(CC3CCN(c4ncc(C(=O)N[C@H]5CC[C@@H](Oc6cc(C)c(C#N)c(C)c6)C5)cn4)CC3)C(C)C)C2)cc2c1C(=O)N(C1CCC(=O)NC1=O)C2=O (stereo partly drawn) [Compound 9, N-((1S,3R)-3-(4-cyano-3,5-dimethylphenoxy)cyclopentyl)-2-(4-((((1r,3S)-3-((2-(2,6-dioxopiperidin-3-yl)-7-methoxy-1,3-dioxoisoindolin-5-yl)oxy)cyclobutyl) (isopropyl)amino)methyl)piperidin-1-yl)pyrimidine-5-carboxamide] | > 100 |  |
| COc1cc(O[C@H]2C[C@H](N(CC3CCN(c4cnc(C(=O)N[C@H]5CC[C@H](Oc6cc(C)c(C#N)c(C)c6)CC5)cn4)CC3)C(C)C)C2)cc2c1C(=O)N(C1CCC(=O)NC1=O)C2=O (some centres unmarked) [Compound 17, N-((1r,4r)-4-(4-cyano-3,5-dimethylphenoxy)cyclohexyl)-5-(4-((((1r,3r)-3-((2-(2,6-dioxopiperidin-3-yl)-7-methoxy-1,3-dioxoisoindolin-5-yl)oxy)cyclobutyl) (isopropyl)amino)methyl)piperidin-1-yl)pyrazine-2-carboxamide] | < 1 |  |
